Test results as given in the NIST ThermoML archive (doi:10.1021/acs.jced.8b00387).

Assay: xn = mol fraction of the nth substance listed
Conditions: for viscosity / mass density / speed of sound: 102 kPa, Liquid; for viscosity: Concentric cylinders viscometry; for mass density: Vibrating tube method; for speed of sound: Frequency=3 MHz, Single path-length method; for surface tension liquid-gas: 295 K, Pendant drop shape

CC(CC(C)(C)C)CC(C)(C)CC(C)(C)C (stereo not given) [2,2,4,4,6,8,8-heptamethylnonane] + CCCCc1ccccc1
Conditions	mass density [kg/m3]	speed of sound [m/s]	viscosity [mPa·s]
253.15 K, x2 = 0.1007	815.9	–	11.06
253.15 K, x2 = 0.2007	820.7	–	8.94
253.15 K, x2 = 0.3	826.1	–	7.29
253.15 K, x2 = 0.3999	832.1	–	5.97
253.15 K, x2 = 0.4998	838.8	–	4.93
253.15 K, x2 = 0.5997	846.5	–	4.12
253.15 K, x2 = 0.7001	855.7	–	3.46
253.15 K, x2 = 0.7998	865.8	–	2.96
253.15 K, x2 = 0.8992	878.5	–	2.59
288.15 K, x2 = 0.1007	791.93	1308.2	–
288.15 K, x2 = 0.2007	796.54	1311.6	–
288.15 K, x2 = 0.3	801.59	1315.6	–
288.15 K, x2 = 0.3999	807.31	1320.4	–
288.15 K, x2 = 0.4998	813.73	1325.5	–
288.15 K, x2 = 0.5997	820.89	1331.9	–
288.15 K, x2 = 0.7001	829.45	1339.5	–
288.15 K, x2 = 0.7998	839.17	1348.9	–
288.15 K, x2 = 0.8992	850.51	1359.8	–
293.15 K, x2 = 0.1007	788.54	1289.3	3.22
293.15 K, x2 = 0.2007	793.11	1292.7	2.77
293.15 K, x2 = 0.3	798.11	1296.6	2.41
293.15 K, x2 = 0.3999	803.78	1301.1	2.09
293.15 K, x2 = 0.4998	810.17	1306.3	1.83
293.15 K, x2 = 0.5997	817.24	1312.5	1.6
293.15 K, x2 = 0.7001	825.74	1320.1	1.41
293.15 K, x2 = 0.7998	835.37	1329.1	1.29
293.15 K, x2 = 0.8992	846.62	1340	1.15
303.15 K, x2 = 0.1007	781.75	1251.9	2.58
303.15 K, x2 = 0.2007	786.24	1255.2	2.25
303.15 K, x2 = 0.3	791.16	1258.9	1.97
303.15 K, x2 = 0.3999	796.72	1263.3	1.73
303.15 K, x2 = 0.4998	803	1268.3	1.55
303.15 K, x2 = 0.5997	809.95	1274.4	1.37
303.15 K, x2 = 0.7001	818.29	1281.9	1.21
303.15 K, x2 = 0.7998	827.77	1290.3	1.1
303.15 K, x2 = 0.8992	838.82	1300.9	0.993
313.15 K, x2 = 0.1007	774.96	1215.2	2.11
313.15 K, x2 = 0.2007	779.36	1218.4	1.86
313.15 K, x2 = 0.3	784.19	1222	1.64
313.15 K, x2 = 0.3999	789.65	1226.2	1.46
313.15 K, x2 = 0.4998	795.81	1231.1	1.3
313.15 K, x2 = 0.5997	802.64	1237	1.16
313.15 K, x2 = 0.7001	810.83	1244.2	1.03
313.15 K, x2 = 0.7998	820.15	1252.3	0.957
313.15 K, x2 = 0.8992	831.01	1262.7	0.855
323.15 K, x2 = 0.1007	768.15	1179.3	1.76
323.15 K, x2 = 0.2007	772.47	1182.3	1.56
323.15 K, x2 = 0.3	777.21	1185.8	1.39
323.15 K, x2 = 0.3999	782.56	1189.8	1.27
323.15 K, x2 = 0.4998	788.61	1194.5	1.14
323.15 K, x2 = 0.5997	795.31	1200.2	1.03
323.15 K, x2 = 0.7001	803.34	1207.2	0.92
323.15 K, x2 = 0.7998	812.49	1215.1	0.831
323.15 K, x2 = 0.8992	823.15	1225.2	0.754
333.15 K, x2 = 0.1007	761.33	1144.1	1.49
333.15 K, x2 = 0.2007	765.57	1147	1.33
333.15 K, x2 = 0.3	770.2	1150.3	1.2
333.15 K, x2 = 0.3999	775.45	1154.1	1.1
333.15 K, x2 = 0.4998	781.38	1158.8	1
333.15 K, x2 = 0.5997	787.95	1164.2	0.9
333.15 K, x2 = 0.7001	795.82	1170.9	0.812
333.15 K, x2 = 0.7998	804.8	1178.9	0.736
333.15 K, x2 = 0.8992	815.26	1188.7	0.67

Conditions	surface tension liquid-gas [mN/m]
x2 = 0.1007	24.3
x2 = 0.2007	24.6
x2 = 0.3	24.8
x2 = 0.3999	25.1
x2 = 0.4998	25.5
x2 = 0.5997	26
x2 = 0.7001	26.2
x2 = 0.7998	26.7
x2 = 0.8992	27.3
